Laboratory results: US9498387B2, “Absorbent article having bent sections” (UNICHARM CORPORATION, priority 2012, dated 2016)

Source text: As used herein, the term “solubility” in regard to water solubility includes cases where the sample completely dissolves in deionized water to form a homogeneous mixture, and cases where the sample is completely emulsified. As used herein, “completely” means that no mass of the sample remains in the deionized water.

Structure (SMILES): CCCCCCCCCCCCOC(=O)CCCCCCCCCCC [2-18]
- Water solubility: <0.05 g

Structure (SMILES): CCCCCCCCCCCCCC(=O)OCCCCCCCCCCCC [2-19]
- Water solubility: <0.05 g
